Test results from patent US6576607B1, “Methods using CNS neurite outgrowth modulators” (Acorda Therapeutics, priority 1995, dated 2003).

B1: NgCAM: immunogenic chick NgCAM given intrathecally (protein, UniProt Q03696 21-1266, looked up)
Neuronal-glial cell adhesion …: ITIPPEYGAHDFLQPPELTEEPPEQLVVFPSDDIVLKCVATGNPPVQYRWSREDQPFVPEEHGGVSVVPGSGTLVINATLAARLQGRFRCFATNALGTAVSPEANVIAENTPQWPKEKVTPVEVEEGDPVVLPCDPPESAVPPKIYWLNSDIVHIAQDERVSMGQDGNLYFSNAMVGDSHPDYICHAHFLGPRTIIQKEPLDLRVAPSNAVRSRRPRLLLPRDPQTTTIALRGGSVVLECIAEGLPTPWVRWRRLNGPLLPGGVGNFNKTLRLWGVTESDDGEYECVAENGRGTARGTHSVTVEAAPYWVRRPQSGVFGPGETARLDCEVGGKPRPQIQWSINGVPIEAAGAERRWLRGGALVLPELRPNDSAVLQCEARNRHGPLLANAFLHVVELPLRMLTADEQRYEVVENQTVFLHCRTFGAPAPNVEWLTPTLEPALQDDRSFVFTNGSLRVSAVRGGDGGVYTCMAQNAHSNGSLTALLEVRAPTRISAPPRSATAKKGETVTFHCGATFDPAVTPGELRWLRGGQPLPDDPRYSVAAEMTVSNVDYGDEGTIQCRASTPLDSAEAEAQLRVVGRPPSRDLQVMEVDEHRVRLSWTPGDDHNSPIEKFVVEEEEEREDLQRGFGAADVPGQPWTPPLPLSPYGRFPFRVVAVNAYGRGEHHAPSAPIETPPAAPERNPGGVHGEGNETGNLVITWEPLPPQAWNAPWARYRVQWRPLEEPGGGGPSGGFPWAESTVDAPPVVVGGLPPFSPFQIRVQAVNGAGKGPEATPGVGHSGEDLPLVYPENVGVELLNSSTVRVRWTLGGGPKELRGRLRGFRVLYWRLGWVGERSRRQAPPDPPQIPQSPAEDPPPFPPVALTVGGDARGALLGGLRPWSRYQLRVLVFNGRGDGPPSEPIAFETPEGVPGPPEELRVERLDDTALSVVERRTFKRSITGYVLRYQQVEPGSALPGGSVLRDPQCDLRGLNARSRYRLALPSTPRERPALQTVGSTKPEPPSPLWSRFGVGGRGGFHGAAVEFGAAQEDDVEFEVQFMNKSTDEPWRTSGRANSSLRRYRLEGLRPGTAYRVQFVGRNRSGENVAFWESEVQTNGTVVPQPGGGVCTKGWFIGFVSSVVLLLLILLILCFIKRSKGGKYSVKDKEDTQVDSEARPMKDETFGEYRSLESEAEKGSASGSGAGSGVGSPGRGPCAAGSEDSLAGYGGSGDVQFNEDGSFIGQYRGPGAGPGSSGPASPCAGPPLD

What was measured:
dopaminergic neurons [1] = test: [3H]dopamine uptake in primary cultures of embryonic ventral mesencephalon; assay type: cell-based, rat; details: 0.5 μM, 3 days
Procedure: (§1) Cell culture, dopamine uptake and treatment with MPP+have been described (Hartikka et al., 1992). Primary cultures containing dopaminergic neurons were prepared from the ventral mesencephalon of 14-day-old fetal rats and plated in 24 well plates. A culture well usually contained 6×10^5 cells/well, of which 3-5% were dopaminergic. Duplicate cultures were prepared for dopamine uptake or tyrosine hydroxylase staining. Dopamine uptake was measured using tritiated dopamine at concentrations of 50 nM (sp, act. 45 Ci/mmol, New England Nuclear). The survival of dopaminergic neurons in the culture was assayed by counting tyrosine hydroxylase (TH) immunopositive neurons, stained with a monoclonal antibody to TH (Boehringer Mannheim).
(§2) The monoclonal L1 antibodies 327 and 557.B6 (referred to as 557) were added to the culture medium on the day of plating at concentrations of 7.5-120 μg/ml and left for 3 days. In addition to treatment of the culture medium with antibodies, they were also substrate coated prior to plating of the cells, as described (Appel et al., 1993). In experiments with MPP^+ (active metabolite of methyl-phenyl-tetrahydropyridine, MPTP), antibodies or cAMP-elevating agents were added to the culture medium of 5-day-old cultures, followed by 1 μM MPP^+ on day 6 and cells were fixed on day 8 for immunocytochemistry. […]

dopaminergic neurons [2] = test: Protection of dopaminergic neurons from MPP+ neurotoxicity; assay type: cell-based, rat; details: forskolin combined with PDE-IV inhibitor NQ-A
Procedure: as §1, §2

injured rat spinal cord = test: Rat spinal cord contusion injury (NYU impactor), intrathecal infusion; assay type: in vivo; details: 15 μg/ml intrathecally, 6 rats without CyA; unpublished experiments
Procedure: The NYU Impactor and rat contusion models of spinal cord injury have been extensively described. [Kwo S, Young W, DeCrescito V (1989) Journal of Neurotrauma 6:13-24; Huang P, Young W (1994). Journal of Neurotrauma 11: 547-62; Basso M, Beattie M, Bresnahan J, Anderson DK, Faden A, et al. (1996) Journal of Neurotrauma in press; Constantini S, Young W (1994) Journal of Neurosurgery 80: 97-111]. Rats were anesthetized with an intraperitoneal dose of pentobarbital (40 mg/kg female, 60 mg/kg male), suspended with clamps placed on the T8 and T11 dorsal processes, and injured at one hour after induction of anesthesia. The impactor drops a 10 g rod a distance of 12.5, 25.0, or 50.0 mm onto the dorsal surface of T9-10 spinal cord, exposed by laminectomy. Two digital optical potentiometers measured the trajectory of the falling rod and vertebral movement with a precision of ±20 μm and ±20 μsec. Cord compression rate (Cr) was calculated from the distance of cord compression divided by time required for compression. […]
The rats received daily Keflin® (15 mg/kg b.i.d. subcutaneous) for one week after injury and then Baytril® (5 mg/kg b.i.d. subcutaneous) for 10 days for recurrent urinary tract infections. […] The rats were assessed weekly for locomotor recovery, using the Basso-Beattie-Bresnahan (BBB) scale developed at Ohio State University. […]

Row | Molecule | dopamine uptake (dopaminergic neurons [1]) | protection from MPP+ toxicity (dopaminergic neurons [2]) | locomotor recovery and corticospinal tract regeneration (injured rat spinal cord)
1 | COC(=O)c1cccc(-n2c(=O)n(Cc3ccccc3)c(=O)c3ccccc32)c1 [NQ-A, 1-(3-carbomethoxyphenyl)-3-benzyl-quinazoline-2,4-dione] | slight elevation of dopamine uptake | effectively protects against MPP^+ toxicity | 
2 | B1 |  |  | did not result in locomotor recovery or evidence of regenerating corticospinal tracts
